# Assay results reported in patent publication US8796302B2 (priority 2004, dated 2014).
# Tests used:
# Format in all cases: cell-based, rat
# [1] = system: microglia in neuron-glia cultures; assay: OX-42 immunostaining of LPS-induced microglial activation; details: for LPS-induced activation of microglia (OX-42): LPS 5 ng/ml, 12 h
# Experimental: Dopaminergic neurons were recognized with the anti-TH antibody and microglia were detected with the OX-42 antibody, which recognizes the CR3 receptor. This was accomplished as follows: 3.7% formaldehyde-fixed cultures were treated with 1% hydrogen peroxide for about 10 minutes followed by sequential incubation with a blocking solution (30 min), primary antibody (overnight, 4° C.), biotinylated secondary antibody (2 hours), and ABC reagents (40 min). The color was developed with 3,3′-diaminobenzidine.
# Neuron-glia cultures were prepared and treated with vehicle, LPS (5 ng/ml), or LPS plus DM respectively as in Example 1. Twelve hours later, cultures were immunostained with anti-OX-42 antibody. Images shown are representative of three separate experiments. The immunostaining and morphological analysis was accomplished as in Example 2.
# Mesencephalic neuron-glia cultures were pretreated with VPA for 48 h and then treated with 20 ng/ml LPS for 72 h, as described in Example 19. Immunostaining with an antibody against OX-42 was then performed, as described in Example 19.
# NO = NO production (nitrite, Griess reagent) after LPS; details: for LPS-stimulated NO production (nitrite): 24 after LPS 20 ng/ml
# Experimental: (§1) Different pro-inflammatory factors that are released from microglia were also monitored. The production of NO was determined by measuring the accumulated levels of nitrite in the supernatant with the Griess reagent, and release of TNFα was measured with a rat TNFα enzyme-linked immunosorbent assay kit from R & D System (Minneapolis, Minn.).
# The cultures were prepared as in Example 1 and were first treated with LPS 20 ng/ml or vehicle; 12 hours later the LPS was removed and the cultures were treated with 10^−5 M, 10^−10M, and 10^−14M DM. Twenty four hours later, nitrite oxide and PGE2 production were assessed as in Example 5. The results are expressed as a percentage of LPS treated culture and are the mean±S.E.M of four and three experiments with triplicates in each experiment. *, p<0.05 compared with the LPS-treated culture. ###, P<0.001 compared with the control culture.
# Production of nitric oxide (NO) was determined in the mesencephalic neuron-glia cultures, following pretreatment and LPS stimulation as described above, by measuring the accumulated levels of nitrite in the supernatant with Griess reagent. Accumulation of nitrite, an indicator of LPS-stimulated production of NO, was determined 24 after LPS stimulation.
# [2] = system: dopaminergic neurons in mesencephalic neuron-enriched cultures; assay: [3H]DA uptake in Aβ- or MPP+-treated neuron-enriched cultures
# Experimental: Neuron-enriched culture were prepared from the ventral mesencephalic tissues of embryonic day 13-14 Fisher F344 rats (Charles River Laboratories, Raleigh, N.C.) as follows. Dissociated cells were seeded at 1×10^5/well in 96-well and 5×10^5/well to poly-D-lysine-coated 96-well and 24-well plates, respectively. Glial proliferation was suppressed by the inclusion of cytosine β-D-arabinocide (5-10 μM). Seven day old cultures were used for treatment, which were composed of 91% neurons, 9% astrocytes, and <0.1% microglia. The cultures were pre-treated with OM, 10^−5 M, 10^−10 M, and 10^−14M DM 30 minutes before treatment with vehicle alone, 4 μM Aβ or 0.5 μM MPP^+5 as in Example 1. DA uptake was also measured as in Example 1 and the results are expressed in both FIGS. 4A and B as a percentage of the control cultures and are the mean±S.E.M. of four individual experiments with triplicates in each experiment. […]
# Neuron-enriched cultures seeded in 24-well culture plates were pretreated for 48 hours with 0.6 mM VPA followed by treatment with 0.5 μM MPP^+. [^3H]DA uptake was measured 7 days after MPP^+ treatment according to procedures described in Example 1. Results are expressed as mean±SEM of percentage of vehicle control from three independent experiments performed in duplicate. *,p<0.05 compared with vehicle-treated cultures. †, p<0.05 compared with corresponding MPP^+-treated cultures.
# TNFα = TNFα release (ELISA) after LPS
# Experimental: as §1
# Mesencephalic neuron-glia cultures were pretreated with VPA or vehicle control for 48 hours prior to stimulation with 20 ng/ml LPS. The release of TNF-α was determined 3 hours after LPS treatment. The release of TNFα, was measured with a rat TNFα enzyme-linked immunosorbent assay kit from R & D System (Minneapolis, Minn.).
# [3] = system: intracellular reactive oxygen species; assay: Intracellular ROS (DCFH oxidation) after LPS
# Experimental: The production of intracellular reactive oxygen species was measured by DCFH oxidation. The DCFH-DA (Molecular Probes, Eugene, Oreg.) reagent passively diffuses into cells in which it is hydrolyzed by intracellular esterase to liberate 2′-7′-dichlorofluoressein which, during reaction with oxidizing species, yields a highly fluorescent compound 2′-7′-dichlorofluorescein (DCF) that is trapped inside the cell. For each measurement, a fresh stock solution of CM-H2-DCFDA (5 mM) was prepared in dimethylsulfoxide. CM-H2-DCFDA, diluted to a final concentration of 1 μM in phenol red-free HBSS containing 2% FBS and 2% HS, was added to cultures and incubated for about 30 min at about 37° C. After washing two times with warm HBSS, vehicle or stimulators in HBSS were added to cultures. After incubation for about 30 min at about 37° C., fluorescence intensity was measured at 485 nm for excitation and 530 nm for emission using a SpectraMax Gemini XS fluorescence microplate reader (Molecular Devices).
# The data are expressed as the percent of the control cultures and are the mean±SEM of three experiments performed in triplicate. *P<0.05, **P<0.01, compared to control.
# Assay of intracellular ROS is performed as follows. 5-(and −6)-Chloromethyl-2′,7′-dichlorodihydrofluorescein diacetate (CM-H2-DCFDA) (Molecular Probes, Eugene, Oreg.), a chloromethyl derivative of H2-DCFDA, passively diffuses into cells in which it is hydrolyzed by intracellular esterases to liberate 2′-7′-dichlorofluorescein (DCF) which, during reaction with oxidizing species, yields a highly fluorescent compound that is trapped inside the cell. […] Cells were seeded at 1×10^5/well in 96-well plates for one day followed by treatment with 0.6 mM or 1.2 mM VPA for 24 h. The cultures were used for the assay of intracellular ROS.
# After washing two times with warm Hank's balanced salt solution (HBSS), CM-H2-DCFDA, diluted to a final concentration of 1 μM in phenol red-free HBSS, was added to cultures and incubated for 30 min at 37° C. Then cultures were added with 0.6 or 1.2 mM VPA in HBSS again for 30 min and followed the treatment with 100 ng/ml LPS for 2 hours at 37° C., fluorescence intensity was measured at 485 nm for excitation and 530 nm for emission using a SpectraMax Gemini XS fluorescence microplate reader (Molecular Devices, Sunnyvale, Calif.).
# [4] = DM 10^−5 M and 10^−14 M pretreatment
SMILES,LPS-induced activation of microglia (OX-42) ([1]; DM 10^−5 M and 10^−14 M),LPS-induced activation of microglia (OX-42) ([1]; DM 10^−10 M),LPS-induced increase in the release of NO (NO; [4]),LPS-induced increase in the release of NO (NO; DM 10^−10 M pretreatment),"NO production, post treatment (NO; femtomolar DM after removal of LPS (20 ng/ml, 12 h), 24 h)","Aβ (1-42)-induced reduction of DA uptake ([2]; DM 10^−5, 10^−10, 10^−14 M, Aβ (1-42) 4 μM, 9 days, neuron-enriched)",LPS-induced increase in the release of TNFα (TNFα; [4]),LPS-induced increase in the release of TNFα (TNFα; DM 10^−10 M pretreatment),"LPS-induced increase in intracellular reactive oxygen species [3, 4]",LPS-induced increase in intracellular reactive oxygen species ([3]; DM 10^−10 M pretreatment),"LPS-stimulated activation of microglia (OX-42) ([1]; VPA 0.4 or 0.6 mM, 48 h pretreatment, LPS 20 ng/ml 72 h)","microglia activation (OX-42), VPA alone ([1]; VPA alone)",LPS-stimulated NO production (nitrite) (NO; VPA 0.4 mM pretreatment),LPS-stimulated NO production (nitrite) (NO; VPA 0.6 mM pretreatment),"MPP+-induced degeneration of DA neurons (DA uptake) ([2]; VPA 0.6 mM, 48 hours pretreatment, MPP+ 0.5 μM, 7 days)","LPS-induced TNFα production (TNFα; VPA 0.2 mM, 48 h pretreatment, 3 h after LPS 20 ng/ml)","LPS-induced production of TNFα (TNFα; VPA 0.4 or 0.6 mM, 48 h pretreatment, 3 h after LPS 20 ng/ml)","LPS-induced increase of iROS level ([3]; VPA 0.6 or 1.2 mM pretreatment, enriched microglia, LPS 100 ng/ml 2 h)","basal iROS levels ([3]; VPA alone 0.6 mM, enriched microglia)"
"COc1ccc2c(c1)[C@@]13CCCC[C@H]1[C@@H](C2)N(C)CC3 [DM, d-3-methoxy-N-methylmorphinan]",prevented the LPS-induced activation of microglia,didn't significantly inhibit microglia activation,significantly decreased,no significant reduction,reduction of NO and PGE2 production,did not significantly alter,significantly decreased,no significant reduction,significantly decreased,no significant reduction,,,,,,,,,
"CCCC(CCC)C(=O)O [VPA, Valproic acid]",,,,,,,,,,,suppressed,did not show significant effects on microglia activation,54 % of the control,78 % of the control,blocked,significant inhibited,completely blocked,completely blocked,reduced basal iROS levels
